Reference: ChEMBL document CHEMBL4414590, “Discovery of SIAIS178 as an Effective BCR-ABL Degrader by Recruiting Von Hippel-Lindau (VHL) E3 Ubiquitin Ligase” (J Med Chem, 2019)
The source made the active and inactive calls. The rule behind the calls is not given here.

What was measured:
[1] = target: Tyrosine-protein kinase ABL1 (Homo sapiens) (UniProt P00519); test: Binding affinity to human non-phosphorylated ABL1 (S229 to K512 residues) expressed in mammalian expression system assessed as residual binding level at 10 uM by Kinomescan method relative to control
U-937 = test: Growth inhibition of human U937 cells incubated for 2 days by CCK8 assay; type: functional, cell-based
[2] = test system: von Hippel-Lindau disease tumor suppressor/Tyrosine-protein kinase ABL1/Breakpoint cluster region protein (Homo sapiens), P00519+P11274+P40337 [G250E]; test: Protac activity against VHL/BCR-ABL G250E mutant (unknown origin) expressed in human U937 cells assessed as induction of BCR-ABL degradation incubated for 16 hrs by Western blot analysis; type: cell-based
[3] = target: T1, von Hippel-Lindau disease tumor suppressor/Tyrosine-protein kinase ABL1/Breakpoint cluster region protein (Homo sapiens, UniProt P00519+P11274+P40337); test: Protac activity against VHL/BCR-ABL in human K562 cell lysates assessed as induction of pull down of endogenous BCR-ABL at 10 to 100 nM in presence of excess immobilized GST-VBC bait by GST-pull down assay; type: subcellular; conditions: Lysate
[4] = target: von Hippel-Lindau disease tumor suppressor/Ephrin type-B receptor 4 (Homo sapiens) (UniProt P54760+P40337); test: Protac activity against VHL/EPHB4 in human K562 cells assessed as reduction in EPHB4 protein levels at 1 to 100 nM incubated for 16 hrs by Western blot analysis; type: cell-based
[5] = target: Tyrosine-protein kinase ABL1 (Homo sapiens) (UniProt P00519); test: Binding affinity to human phosphorylated ABL1 (S229 to K512 residues) expressed in mammalian expression system assessed as residual binding level at 10 uM by Kinomescan method relative to control
[6] = target: von Hippel-Lindau disease tumor suppressor/Tyrosine-protein kinase ABL2 (Homo sapiens) (UniProt P42684); test: Protac activity against VHL/BCR-ABL in human K562 cells assessed as reduction in ABL2 protein levels at 100 nM incubated for 16 hrs by multiplexed tandem mass spectrometry
[7] = Toxicity in NOD/SCID mouse xenografted with luciferse expressing human K562 cells assessed as effect on body weight at 5 to 15 mg/kg, ip QD for 12 days; type: organism-based; conditions: in vivo, 288 h
[8] = target: T1, von Hippel-Lindau disease tumor suppressor/Tyrosine-protein kinase ABL1/Breakpoint cluster region protein; test: Protac activity against VHL/BCR-ABL in human K562 cell lysates assessed as induction of pull down of endogenous ABL at 10 to 100 nM in presence of excess immobilized GST-VBC bait by GST-pull down assay; type: subcellular; conditions: Lysate
[9] = target: T1, von Hippel-Lindau disease tumor suppressor/Tyrosine-protein kinase ABL1/Breakpoint cluster region protein; test: Protac activity against VHL/BCR-ABL in human K562 cells assessed as reduction in BCR-ABL protein levels at 1 to 100 nM incubated for 16 hrs by Western blot analysis; type: cell-based
[10] = test system: von Hippel-Lindau disease tumor suppressor/Tyrosine-protein kinase ABL1/Breakpoint cluster region protein (Homo sapiens), P00519+P11274+P40337 [T315A]; test: Protac activity against VHL/BCR-ABL T315A mutant (unknown origin) expressed in human U937 cells assessed as induction of BCR-ABL degradation incubated for 16 hrs by Western blot analysis; type: cell-based
Mus musculus = test: Inhibition of BCR-ABL phosphorylation in NOD/SCID mouse xenografted with luciferse expressing human K562 cells at 5 to 15 mg/kg, ip QD for 4 days by Western blotting analysis; type: functional, organism-based
K562 [11] = test: Growth inhibition of human K562 cells incubated for 2 days by CCK8 assay; type: functional, cell-based; conditions: K562, 48 h
[12] = target: T1, von Hippel-Lindau disease tumor suppressor/Tyrosine-protein kinase ABL1/Breakpoint cluster region protein; test: Protac activity against VHL/BCR-ABL in human K562 cells assessed as induction of BCR-ABL degradation at 100 nM incubated up to 24 hrs by Western blot analysis; type: cell-based; conditions: TDE = time-dependent effect
[13] = test system: von Hippel-Lindau disease tumor suppressor/Tyrosine-protein kinase ABL1/Breakpoint cluster region protein (Homo sapiens), P00519+P11274+P40337 [T315I]; test: Protac activity against VHL/BCR-ABL T315I mutant (unknown origin) expressed in human U937 cells assessed as induction of BCR-ABL degradation incubated for 16 hrs by Western blot analysis; type: cell-based
K562 [14] = test: Antitumor activity against luciferse expressing human K562 cells xenografted in NOD/SCID mouse assessed as attenuation of tumor progression at 5 to 15 mg/kg, ip QD for 12 days by serial volumetric analysis; type: functional, organism-based
[15] = target: von Hippel-Lindau disease tumor suppressor/Tyrosine-protein kinase Yes (Homo sapiens) (UniProt P07947+P40337); test: Protac activity against VHL/YES in human K562 cells assessed as reduction in Yes protein levels at 1 to 100 nM incubated for 16 hrs by Western blot analysis; type: cell-based
[16] = target: Bcr/Abl fusion protein (Homo sapiens) (UniProt P00519+P11274); test: Inhibition of BCR-ABL in human KU812 cells assessed as reduction in STAT5 phosphorylation at 1 to 30 nM by Western blot analysis; type: cell-based
K562 [17] = test: Effect on LYN protein level in human K562 cells at 100 nM incubated for 16 hrs by multiplexed tandem mass spectrometry; type: ADME, cell-based; conditions: k562, 16 h, 0.1 µM
K562 [18] = test: Antitumor activity against luciferse expressing human K562 cells xenografted in NOD/SCID mouse assessed as reduction in tumor burden at 5 to 15 mg/kg, ip QD for 12 days by bioluminescence imaging analysis; type: functional, organism-based
K562 [19] = test: Effect on YES protein level in human K562 cells at 100 nM incubated for 16 hrs by multiplexed tandem mass spectrometry; type: ADME, cell-based; conditions: k562, 16 h, 0.1 µM
[20] = target: von Hippel-Lindau disease tumor suppressor/Receptor-interacting serine/threonine-protein kinase 2 (Homo sapiens) (UniProt O43353+P40337); test: Protac activity against VHL/RIPK2 in human K562 cells assessed as reduction in RIPK2 protein levels at 1 to 100 nM incubated for 16 hrs by Western blot analysis; type: cell-based
HL-60 = test: Growth inhibition of human HL60 cells incubated for 2 days by CCK8 assay; type: functional, cell-based

T1 sequence (P00519 whole entry, looked up): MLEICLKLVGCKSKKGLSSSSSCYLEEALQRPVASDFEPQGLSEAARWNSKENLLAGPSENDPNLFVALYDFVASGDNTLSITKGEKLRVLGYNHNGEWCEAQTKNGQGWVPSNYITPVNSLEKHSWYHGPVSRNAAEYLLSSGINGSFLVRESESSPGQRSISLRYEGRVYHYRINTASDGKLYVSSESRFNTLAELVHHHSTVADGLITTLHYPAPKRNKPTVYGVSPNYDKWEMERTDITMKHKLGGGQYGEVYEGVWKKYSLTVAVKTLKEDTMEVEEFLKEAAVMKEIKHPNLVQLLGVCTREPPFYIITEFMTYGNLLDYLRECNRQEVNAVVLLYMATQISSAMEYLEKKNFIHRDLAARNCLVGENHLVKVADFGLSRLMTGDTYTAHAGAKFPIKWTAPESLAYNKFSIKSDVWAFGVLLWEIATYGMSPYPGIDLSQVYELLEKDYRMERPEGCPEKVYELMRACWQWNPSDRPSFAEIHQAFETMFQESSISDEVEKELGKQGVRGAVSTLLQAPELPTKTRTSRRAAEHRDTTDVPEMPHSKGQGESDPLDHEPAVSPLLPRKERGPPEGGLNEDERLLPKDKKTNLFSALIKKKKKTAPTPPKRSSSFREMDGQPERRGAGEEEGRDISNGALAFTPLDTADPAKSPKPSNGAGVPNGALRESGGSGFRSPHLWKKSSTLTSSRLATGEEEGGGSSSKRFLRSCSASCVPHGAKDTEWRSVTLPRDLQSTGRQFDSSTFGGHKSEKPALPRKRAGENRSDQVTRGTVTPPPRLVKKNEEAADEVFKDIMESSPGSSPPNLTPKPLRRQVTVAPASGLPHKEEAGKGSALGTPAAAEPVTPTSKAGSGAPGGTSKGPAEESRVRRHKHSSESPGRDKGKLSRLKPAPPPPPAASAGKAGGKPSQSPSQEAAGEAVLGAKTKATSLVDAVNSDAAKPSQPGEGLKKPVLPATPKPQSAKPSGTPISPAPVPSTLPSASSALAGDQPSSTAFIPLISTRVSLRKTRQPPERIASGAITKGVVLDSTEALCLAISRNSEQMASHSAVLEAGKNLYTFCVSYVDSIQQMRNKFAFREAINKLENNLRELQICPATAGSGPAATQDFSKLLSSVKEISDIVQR
T1 sequence (P11274 whole entry, looked up): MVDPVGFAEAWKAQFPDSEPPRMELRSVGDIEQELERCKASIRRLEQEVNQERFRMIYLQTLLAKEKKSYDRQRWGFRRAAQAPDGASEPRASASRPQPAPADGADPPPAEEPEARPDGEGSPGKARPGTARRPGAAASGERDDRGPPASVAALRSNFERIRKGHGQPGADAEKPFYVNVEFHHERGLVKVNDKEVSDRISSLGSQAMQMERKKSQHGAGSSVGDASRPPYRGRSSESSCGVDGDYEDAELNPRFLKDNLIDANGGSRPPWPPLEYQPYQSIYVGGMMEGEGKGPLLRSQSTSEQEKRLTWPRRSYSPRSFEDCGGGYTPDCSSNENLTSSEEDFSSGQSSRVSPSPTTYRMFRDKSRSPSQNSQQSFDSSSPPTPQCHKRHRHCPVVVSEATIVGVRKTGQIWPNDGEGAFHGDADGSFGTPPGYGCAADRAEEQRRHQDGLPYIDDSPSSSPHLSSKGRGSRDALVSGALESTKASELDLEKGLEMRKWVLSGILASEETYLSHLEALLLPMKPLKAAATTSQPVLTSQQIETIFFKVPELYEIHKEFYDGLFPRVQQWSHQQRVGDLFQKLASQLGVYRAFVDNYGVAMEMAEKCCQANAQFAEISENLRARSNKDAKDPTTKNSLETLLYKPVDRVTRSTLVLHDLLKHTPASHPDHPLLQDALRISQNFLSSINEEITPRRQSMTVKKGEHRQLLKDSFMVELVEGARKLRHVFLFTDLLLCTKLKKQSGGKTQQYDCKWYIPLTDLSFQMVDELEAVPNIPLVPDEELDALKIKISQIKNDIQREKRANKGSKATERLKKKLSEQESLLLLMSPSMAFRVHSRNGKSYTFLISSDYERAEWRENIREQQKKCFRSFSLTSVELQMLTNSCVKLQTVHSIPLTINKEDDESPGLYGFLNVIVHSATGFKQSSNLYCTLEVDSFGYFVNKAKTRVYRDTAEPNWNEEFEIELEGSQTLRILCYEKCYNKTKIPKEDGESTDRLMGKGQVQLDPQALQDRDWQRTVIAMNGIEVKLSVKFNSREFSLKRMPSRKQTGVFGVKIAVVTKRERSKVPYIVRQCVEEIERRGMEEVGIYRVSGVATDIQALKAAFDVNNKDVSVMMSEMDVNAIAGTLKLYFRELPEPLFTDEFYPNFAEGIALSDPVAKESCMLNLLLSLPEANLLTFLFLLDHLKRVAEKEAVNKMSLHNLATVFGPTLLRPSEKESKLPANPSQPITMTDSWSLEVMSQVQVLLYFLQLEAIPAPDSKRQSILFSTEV
T1 sequence (P40337 whole entry, looked up): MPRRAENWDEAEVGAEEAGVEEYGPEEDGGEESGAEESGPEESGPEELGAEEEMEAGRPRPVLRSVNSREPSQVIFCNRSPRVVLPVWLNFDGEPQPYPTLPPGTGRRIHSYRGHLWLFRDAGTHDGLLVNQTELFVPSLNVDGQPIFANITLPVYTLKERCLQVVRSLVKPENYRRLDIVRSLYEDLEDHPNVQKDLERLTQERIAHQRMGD
Tyrosine-protein kinase ABL1 (Homo sapiens), sequence (P00519 whole entry, the tested form may be a part): as the sequence (P00519 whole entry, looked up) above
von Hippel-Lindau disease tumor suppressor/Ephrin type-B receptor 4 (Homo sapiens), sequence (P40337 whole entry, looked up, the tested form may be a part): as the sequence (P40337 whole entry, looked up) above
von Hippel-Lindau disease tumor suppressor/Ephrin type-B receptor 4 (Homo sapiens), sequence (P54760 whole entry, looked up, the tested form may be a part): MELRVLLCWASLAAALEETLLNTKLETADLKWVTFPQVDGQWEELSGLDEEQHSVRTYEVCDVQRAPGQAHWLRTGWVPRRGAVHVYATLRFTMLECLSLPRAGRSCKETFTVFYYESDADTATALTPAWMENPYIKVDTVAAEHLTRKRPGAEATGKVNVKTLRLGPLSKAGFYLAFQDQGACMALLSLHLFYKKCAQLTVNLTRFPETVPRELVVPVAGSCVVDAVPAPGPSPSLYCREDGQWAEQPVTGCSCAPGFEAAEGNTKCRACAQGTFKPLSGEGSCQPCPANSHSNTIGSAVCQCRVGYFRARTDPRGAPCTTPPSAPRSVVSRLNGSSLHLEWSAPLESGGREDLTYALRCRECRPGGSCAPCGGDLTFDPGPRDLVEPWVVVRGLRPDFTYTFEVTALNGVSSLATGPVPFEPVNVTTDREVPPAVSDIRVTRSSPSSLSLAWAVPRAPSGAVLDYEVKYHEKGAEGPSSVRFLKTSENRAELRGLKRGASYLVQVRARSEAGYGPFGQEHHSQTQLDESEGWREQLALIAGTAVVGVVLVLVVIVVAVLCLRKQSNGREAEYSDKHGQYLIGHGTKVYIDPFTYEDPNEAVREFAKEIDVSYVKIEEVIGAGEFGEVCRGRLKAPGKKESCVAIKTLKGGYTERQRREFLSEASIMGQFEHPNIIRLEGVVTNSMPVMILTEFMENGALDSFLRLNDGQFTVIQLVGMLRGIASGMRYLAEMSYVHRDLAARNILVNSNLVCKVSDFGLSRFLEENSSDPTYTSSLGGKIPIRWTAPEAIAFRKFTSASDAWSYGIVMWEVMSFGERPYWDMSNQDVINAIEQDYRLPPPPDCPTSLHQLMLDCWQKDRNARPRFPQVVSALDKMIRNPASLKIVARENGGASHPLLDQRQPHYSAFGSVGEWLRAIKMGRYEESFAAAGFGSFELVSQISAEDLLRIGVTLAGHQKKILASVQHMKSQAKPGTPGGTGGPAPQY

Cc1nc(Nc2ncc(C(=O)Nc3c(C)cccc3Cl)s2)cc(N2CCN(C(=O)CCCCCCC(=O)N[C@H](C(=O)N3C[C@H](O)C[C@H]3C(=O)NCc3ccc(-c4scnc4C)cc3)C(C)(C)C)CC2)n1
Activity [1]: Active
growth inhibition (GI) (U-937): inactive
Activity [2]: Dose-dependent effect
Activity [3]: Dose-dependent effect
Activity [4]: Dose-dependent effect
Activity [5]: Active
Activity [6]: Active
Activity [7]: Non-Toxic
Activity [8]: Dose-dependent effect
Activity [9]: Dose-dependent effect
Activity [10]: inactive
inhibition (Mus musculus): Active
IC50 (K562 [11]): 24 nM
Activity [12]: Tde
Activity [13]: inactive
Activity (K562 [14]): Dose-dependent effect
Activity [15]: inactive
inhibition [16]: Active
Activity (K562 [17]): Non-Toxic
Activity (K562 [18]): Active
Activity (K562 [19]): Non-Toxic
Activity [20]: Dose-dependent effect
growth inhibition (GI) (HL-60): inactive
